In US20160075653A1, “NEMATICIDAL N-(PHENYLCYCLOALKYL)CARBOXAMIDES AND N-(PHENYLCYCLOALKYL)THIOCARBOXAMIDES” (BAYER CROPSCIENCE AKTIENGESELLSCHAFT, priority 2013, published 2016):

Assay: Measurement of log P values by HPLC on reversed phase columns (methods [a] pH 2.3, [b] pH 2.7, [c] pH 7.8)
Assay type: physicochemical
In short: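 Determined per EEC Directive 79/831 Annex V.A8 by reversed-phase HPLC, 10-95% acetonitrile gradient: [a] pH 2.3, 0.1% phosphoric acid; [b] LC-MS, pH 2.7, 0.1% formic acid; [c] LC-MS, pH 7.8, 0.001 molar ammonium hydrogen carbonate. Calibrated with C3-C16 alkan-2-ones by retention-time interpolation.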

[1] = HPLC reversed phase, method [b] (pH 2.7)
[2] = HPLC on reversed phase columns, method [b], pH 2.7
[3] = HPLC on reversed phase column, method [b], pH 2.7
[4] = HPLC reversed phase, method [c] pH 7.8
[5] = method [b], HPLC reversed phase, pH 2.7

Row | Compound | logP [1] | logP [2] | also measured
1 | O=C(NC1CCC1c1ccccc1Cl)c1cccc(Cl)c1 (stereo not shown) [Example 448] | 3.36^[b] | – | –
2 | Cc1nc(C)c(C(=O)NC2CCCC2c2ccccc2C(F)(F)F)s1 (stereo not shown) [Example 308] | 2.97^[b] | – | –
3 | CCc1nn(C)c(F)c1C(=O)N[C@@H]1CCC[C@@H]1c1ccc(F)c(F)c1 (relative stereo) [Example 83] | – | 2.92^[b] | –
4 | O=C(N[C@@H]1CC[C@@H]1c1ccc(Br)cc1C(F)(F)F)c1nccnc1C(F)(F)F (relative stereo) [Example 659] | – | – | logP [3]: 3.72^[b]; logP (HPLC on reversed phase column, method [c], pH 7.8): 3.62^[c];
5 | O=C(NC1CC1c1ccc(Cl)cc1)c1ccccc1F (stereo not shown) [Example 422] | 3.12^[b] | – | logP [4]: 3.07^[c];
6 | Cc1nn(C)c(F)c1C(=O)NC1CC1c1ccc(Cl)cc1 (stereo not shown) [Example 12] | – | 3.04^[b] | –
7 | Cc1ncc(C(=O)N[C@@H]2CCC[C@H]2c2ccc(F)c(F)c2)s1 (relative stereo) [Example 108] | – | 2.64^[b] | –
8 | O=C(NC1CCC1c1ccccc1Cl)c1ccccc1Cl (stereo not shown) [Example 239] | – | – | logP [5]: 3.30^[b]
9 | CC(C)Oc1ccc([C@H]2CCC[C@H]2NC(=O)c2ccccc2[N+](=O)[O-])cc1 (relative stereo) [Example 318] | 3.30^[b] | – | logP [4]: 3.25^[c];
10 | O=C(NC1CCCCC1c1ccccc1Cl)c1ccccc1I (stereo not shown) [Example 382] | 4.02^[b] | – | –
11 | O=C(NC1CCCC1c1c(F)cccc1F)c1cccnc1C(F)(F)F (stereo not shown) [Example 362] | 2.86^[b] | – | –
12 | O=C(N[C@@H]1CC[C@@H]1c1ccc(Cl)cc1C(F)(F)F)c1ccccc1C(F)(F)F (relative stereo) [Example 704] | – | – | logP [3]: 3.84^[b]
13 | Cn1nc(C(F)F)c(C(=O)N(C2CC2)C2CCCCC2(C)c2ccccc2)c1F (stereo not shown) [Example 180] | – | – | logP [5]: 4.18^[b]
14 | O=C(NC1CC1(F)c1ccc(Cl)cc1)c1ccccc1C(F)(F)F (stereo not shown) [Example 755] | – | 3.03^[b] | –
15 | Cc1nn(C)c(Cl)c1C(=O)N[C@@H]1CCC[C@@H]1c1ccc(F)c(F)c1 (relative stereo) [Example 85] | – | 2.82^[b] | –
16 | O=C(N[C@@H]1C[C@H]1c1ccccc1)c1ccccc1Cl (relative stereo) [Example 46] | – | 2.68^[b] | –
17 | O=C(N[C@@H]1CC[C@@H]1c1ccc(Cl)cc1C(F)(F)F)c1cccc(Cl)c1 (relative stereo) [Example 709] | – | – | logP [3]: 4.05^[b]
18 | Cc1nc(C(F)(F)F)c(C(=O)NC2CCC2c2ccc(Cl)cc2C(F)(F)F)s1 (stereo not shown) [Example 731] | – | 3.75^[b] | –
19 | CN(C(=O)c1ccccc1C(F)(F)F)C1CCCC1c1ccc(C(F)(F)F)cc1 (stereo not shown) [Example 307] | 4.46^[b] | – | logP [4]: 4.40^[c];
20 | O=C(N[C@@H]1CC[C@@H]1c1ccc(Cl)cc1Cl)c1ccc(Cl)cc1Cl (relative stereo) [Example 266] | 4.16^[b] | – | –
21 | O=C(N[C@@H]1CCC[C@@H]1c1ccc(C(F)(F)F)cc1)c1nccnc1C(F)(F)F (relative stereo) [Example 330] | 3.55^[b] | – | logP [4]: 3.45^[c];
22 | Cc1nn(C)c(F)c1C(=O)N(C1CC1)C1CCCCC1c1ccccc1 (stereo not shown) [Example 139] | – | – | logP [5]: 3.53^[b]
23 | O=C(NC1CC1c1ccc(Cl)cc1)c1ccc(Cl)nc1 (stereo not shown) [Example 31] | – | 3.53^[b] | –
24 | Cn1nc(C(F)F)c(C(=O)NC2CCCCC2c2ccccc2)c1Cl (stereo not shown) [Example 184] | – | – | logP [5]: 3.33^[b]
25 | O=C(N[C@@H]1CC[C@H]1c1ccc(F)cc1C(F)(F)F)c1c(F)cccc1F (relative stereo) [Example 492] | 3.38^[b] | – | –
26 | O=C(NC1CC1c1ccc(F)cc1)c1cnc(Cl)cc1Cl (stereo not shown) [Example 36] | – | 2.70^[b] | –
27 | COc1c(C(=O)N[C@@H]2CCC[C@@H]2c2ccc(F)c(F)c2)c(C)nn1C (relative stereo) [Example 116] | – | 2.59^[b] | –
28 | Cc1nc(C(F)(F)F)c(C(=O)N[C@@H]2CC[C@@H]2c2cccc(F)c2C(F)(F)F)s1 (relative stereo) [Example 626] | – | – | logP [3]: 3.28^[b]
29 | Cc1cc(C(=O)N[C@@H]2CCC[C@H]2c2ccc(F)c(F)c2)c(C)o1 (relative stereo) [Example 134] | – | – | logP [5]: 3.46^[b]
